Experimental data: patent US11180504B2 (ORCHID PHARMA LTD., priority 2016, dated 2021)
≈ marks a conversion by molar mass, not a printed value. Where two headings read alike, the source gives them in different places.

Key:
[1] = tested on: carbapenem sensitive Pseudomonas aeruginosa; assay: MIC by broth micro-dilution (CLSI), carbapenem sensitive P. aeruginosa; format: cell-based
[2] = tested on: carbapenem sensitive Escherichia coli; assay: MIC by broth micro-dilution (CLSI), carbapenem sensitive E. coli; format: cell-based
[3] = tested on: carbapenemase producing K. pneumoniae; assay: MIC by broth micro-dilution (CLSI), carbapenemase producing K. pneumoniae; format: cell-based, Klebsiella pneumoniae
[4] = tested on: methicillin-sensitive Staphylococcus aureus; assay: MIC by broth micro-dilution (CLSI), methicillin-sensitive S. aureus; format: cell-based; conditions: MSSA S. aureus ATCC29213
[5] = Meropenem susceptible P. aeruginosa ATCC27853
[6] = KPC-2 K. pneumoniae ATCC BAA-1705
[7] = Pseudomonas aeruginosa, ATCC27853, Meropenem susceptible P. aeruginosa ATCC27853, read-out: MIC
[8] = Escherichia coli, ATCC25922, ESBL −ve E. coli ATCC25922, read-out: MIC
[9] = Klebsiella pneumoniae, ATCCBAA1705, KPC-2 K. pneumoniae ATCC BAA-1705, read-out: MIC
[10] = Staphylococcus aureus, ATCC29213|MSSA, read-out: MIC
[11] = Staphylococcus aureus, ATCC 29213 / MSSA, read-out: MIC

| MIC [1, 5] | MIC ([2]; ESBL −ve E. coli ATCC25922) | MIC [3, 6] | MIC [4] | MIC [1, 7] | MIC [2, 8] | MIC [3, 9] | MIC [4, 10] | MIC [4, 11] | Compound |
| --- | --- | --- | --- | --- | --- | --- | --- | --- | --- |
| 1 µg/mL (≈ 1.74 µM) | 0.125 µg/mL (≈ 0.217 µM) | 2 µg/mL (≈ 3.47 µM) | 4 µg/mL (≈ 6.95 µM) |  |  |  |  |  | C[C@@H](NC(=O)Cn1cnnn1)[C@H]1C(=O)N2C(C(=O)O)=C(S[C@@H]3CN[C@H](C(=O)N4CC5(CC(N)CO5)C4)C3)[C@H](C)[C@H]12 (single isomer, unassigned) [Example 531] |
| 2 µg/mL (≈ 3.09 µM) | 0.25 µg/mL (≈ 0.387 µM) | 2 µg/mL (≈ 3.09 µM) | 4 µg/mL (≈ 6.18 µM) |  |  |  |  |  | C[C@@H](NC(=O)Cn1cnnn1)[C@H]1C(=O)N2C(C(=O)O)=C(S[C@@H]3CN[C@H](C(=O)N4CCC5CN(C[C@@H](O)CN)CCC54)C3)[C@H](C)[C@H]12 (single isomer, unassigned) [Example 532] |
|  |  |  |  | 2 µg/mL (≈ 3.49 µM) | 0.25 µg/mL (≈ 0.436 µM) | 2 µg/mL (≈ 3.49 µM) | 4 µg/mL (≈ 6.97 µM) |  | C[C@@H](NC(=O)Cn1cnnn1)[C@H]1C(=O)N2C(C(=O)O)=C(S[C@@H]3CN[C@H](C(=O)N4CCC5CNCC5C4)C3)[C@H](C)[C@H]12 (single isomer, unassigned) [Example 533] |
| 1 µg/mL (≈ 1.74 µM) | 0.125 µg/mL (≈ 0.218 µM) | 1 µg/mL (≈ 1.74 µM) | 2 µg/mL (≈ 3.49 µM) |  |  |  |  |  | C[C@@H](NC(=O)Cn1cnnn1)[C@H]1C(=O)N2C(C(=O)O)=C(S[C@@H]3CN[C@H](C(=O)N4CCC5CNCC5C4)C3)[C@H](C)[C@H]12 (single isomer, unassigned) [Example 534] |
|  |  |  |  | 1 µg/mL (≈ 1.66 µM) | 0.25 µg/mL (≈ 0.414 µM) | 2 µg/mL (≈ 3.31 µM) | 2 µg/mL (≈ 3.31 µM) |  | C[C@@H](NC(=O)Cn1cnnn1)[C@H]1C(=O)N2C(C(=O)O)=C(S[C@@H]3CN[C@H](C(=O)N4CCC5CNCC5(CO)C4)C3)[C@H](C)[C@H]12 (single isomer, unassigned) [Example 535] |
| 2 µg/mL (≈ 3.31 µM) | 0.25 µg/mL (≈ 0.414 µM) | 2 µg/mL (≈ 3.31 µM) | 4 µg/mL (≈ 6.63 µM) |  |  |  |  |  | C[C@@H](NC(=O)Cn1cnnn1)[C@H]1C(=O)N2C(C(=O)O)=C(S[C@@H]3CN[C@H](C(=O)N4CCC5CNCC5(CO)C4)C3)[C@H](C)[C@H]12 (single isomer, unassigned) [Example 537] |
|  |  |  |  | 2 µg/mL (≈ 3.31 µM) | 0.25 µg/mL (≈ 0.414 µM) | 1 µg/mL (≈ 1.66 µM) |  | 4 µg/mL (≈ 6.63 µM) | C[C@@H](NC(=O)Cn1cnnn1)[C@H]1C(=O)N2C(C(=O)O)=C(S[C@@H]3CN[C@H](C(=O)N4CC5CCNCC5(CO)C4)C3)[C@H](C)[C@H]12 (single isomer, unassigned) [Example 539] |
| 2 µg/mL (≈ 3.31 µM) | 0.25 µg/mL (≈ 0.414 µM) | 2 µg/mL (≈ 3.31 µM) | 4 µg/mL (≈ 6.63 µM) |  |  |  |  |  | C[C@@H](NC(=O)Cn1cnnn1)[C@H]1C(=O)N2C(C(=O)O)=C(S[C@@H]3CN[C@H](C(=O)N4CC5CCNCC5(CO)C4)C3)[C@H](C)[C@H]12 (single isomer, unassigned) [Example 542] |
|  |  |  |  | 2 µg/mL (≈ 3.39 µM) | 0.25 µg/mL (≈ 0.424 µM) | 2 µg/mL (≈ 3.39 µM) |  | 4 µg/mL (≈ 6.78 µM) | C[C@@H](NC(=O)Cn1cnnn1)[C@H]1C(=O)N2C(C(=O)O)=C(S[C@@H]3CN[C@H](C(=O)N4CC5CC(CO)NC5C4)C3)[C@H](C)[C@H]12 (single isomer, unassigned) [Example 551] |
|  |  |  |  | 2 µg/mL (≈ 3.39 µM) | 0.25 µg/mL (≈ 0.424 µM) | 1 µg/mL (≈ 1.7 µM) |  | 4 µg/mL (≈ 6.78 µM) | C[C@@H](NC(=O)Cn1cnnn1)[C@H]1C(=O)N2C(C(=O)O)=C(S[C@@H]3CN[C@H](C(=O)N4CC5CCNC5(CO)C4)C3)[C@H](C)[C@H]12 (single isomer, unassigned) [Example 555] |
| 4 µg/mL (≈ 6.78 µM) | 0.125 µg/mL (≈ 0.212 µM) | 1 µg/mL (≈ 1.7 µM) | 2 µg/mL (≈ 3.39 µM) |  |  |  |  |  | C[C@@H](NC(=O)Cn1cnnn1)[C@H]1C(=O)N2C(C(=O)O)=C(S[C@@H]3CN[C@H](C(=O)N4CC5CCNC5(CO)C4)C3)[C@H](C)[C@H]12 (single isomer, unassigned) [Example 556] |
| 16 µg/mL (≈ 34.5 µM) | 0.125 µg/mL (≈ 0.27 µM) |  | 4 µg/mL (≈ 8.63 µM) |  |  | 4 µg/mL (≈ 8.63 µM) |  |  | C[C@@H](NC(=O)Cn1cnnn1)[C@H]1C(=O)N2C(C(=O)O)=C(SC3COC4(CNC4)C3)[C@H](C)[C@H]12 (single isomer, unassigned) [Example 557] |
| 128 µg/mL (≈ 276 µM) | 0.5 µg/mL (≈ 1.08 µM) | 2 µg/mL (≈ 4.31 µM) | 16 µg/mL (≈ 34.5 µM) |  |  |  |  |  | C[C@@H](NC(=O)Cn1cnnn1)[C@H]1C(=O)N2C(C(=O)O)=C(SC3COC4(CNC4)C3)[C@H](C)[C@H]12 (single isomer, unassigned) [Example 558] |
